Source: paper PMC12027149 (International Journal of Molecular Sciences, 2025)
“And” between values parts separate entries of the source, which are not always exact repeats. Identical values can stand only once.

Columns and labels:
SH-SY5Y cells [1] = test: Mitochondrial membrane potential (JC-1 probe); type: cell-based, human; conditions: 6 h treatment at LC50, JC-1
Protocol: Mitochondrial membrane potential (MMP) was estimated by using the JC-1 fluorescent probe (Molecular Probes, Eugene, OR, USA) as described in Silva et al., 2022 [65]. The formation of JC-1 aggregates (excitation λ: 490 nm; emission λ: 590 nm) and monomers (excitation λ: 490 nm; emission λ: 530 nm) was measured for 30 min using a plate reader (Bio-Tek Synergy plate reader, Bedfordshire, UK). Changes in MMP were calculated as the ratio between JC-1 monomers and aggregates and expressed as a percentage of the control. An FCCP (2.5 µM) and oligomycin A (1 mg/mL) conjugate solution was used as the positive control. All data were obtained from at least three independent experiments (n = 3) and were presented as mean ± standard error of the mean (SEM).

[2] = molecular target: T1, Acetylcholinesterase (AChE, EC 3.1.1.7) (Electrophorus electricus, UniProt O42275); test: Acetylcholinesterase inhibition, modified Ellman colorimetric method; type: biochemical; conditions: for Hillslope: AChE inhibition dose–response curve; for LOAEL: AChE inhibition; for LOAEL / IC50: Ellman assay; for IC50: IC50, AChE inhibition, 0.03–2 mM, Hill fit
T1 construct: purchased Sigma-Aldrich
Protocol: Acetylcholinesterase (AChE, EC 3.1.1.7) enzymatic activity was assessed using a modified version of Ellman’s colorimetric method, as described by Falé et al.. In this assay, a mixture of 325 μL of 50 mM Tris-HCl buffer (pH 8), 100 μL of a cathinone solution, and 25 μL of AChE (0.1 U/mL in 50 mM Tris–HCl buffer pH 8) were incubated. After a 15 min incubation period, 75 μL of AChI (0.33 mg/mL) was added to 475 μL of DTNB (dithiobis (2-nitrobenzoic acid)) (1.2 mg/mL in Tris–HCl buffer (pH 8) containing 0.1 M NaCl and 0.02 M MgCl2). A control reaction, representing 100% activity, was performed using the same volume of water instead of the cathinone solution. The initial velocity of the enzymatic reaction was measured at 405 nm for 5 min, with all assays carried out in duplicate. The percentage of AChE activity inhibition for different concentrations of cathinones [0.03–2 mM] was determined as the ratio of the initial velocity in the cathinone presence to the initial velocity of the control reaction. Experimental results were fitted to Hill’s sigmoidal dose–response non-linear regression model to determine IC50 values (cathinone concentration showing 50% inhibition), along with their confidence interval at the 95% confidence level ([CI]). The Hill slope coefficients that provide the steepest value of the slope of the dose–response curve and the minimum observable adverse effect concentration (LOAEL) for all cathinones were also determined.

[3] = tested on: differentiated SH-SY5Y cells; test: MTT cytotoxicity assay on differentiated SH-SY5Y cells; type: cell-based, human; conditions: lowest observed adverse effect level, differentiated SH-SY5Y, 24 h, MTT
Protocol: (§1) The SH–SY5Y cell line (DSMZ code: ACC 209) was supplied by the German Collection of Microorganisms and the Cell Culture GmbH (DSMZ) biobank and was cultured according to the supplier’s information. Cells were grown in DMEM:F12 (Dulbecco’s Modified Eagle’s Medium/F12), supplemented with 10% fetal bovine serum (FBS) and 1% antibiotic–antimycotic in a humidified atmosphere with 5% CO2 at 37 °C. Subculture was performed according to biobank instructions when the cultures reached 80–85% of confluence.
(§2) SH-SY5Y cells were trypsinized (trypsin/EDTA; 0.25%) and the cell suspension was seeded in 96-well plates at a density of 2 × 10^4 cells/well and incubated until reaching 80-85% confluence. Cells were differentiated to obtain a dopaminergic neuronal phenotype according to Ferreira et al. with slight modifications (Figure 10). To ensure reproducibility and optimal neuronal differentiation, cells were used between passages (15–25). Briefly, cells were seeded in complete DMEM:F12 medium containing 10 µM retinoic acid (RA) and 2.5% fetal bovine serum (FBS) and maintained for 4 days, with the medium changed on day 2. After this time, the medium was replaced by DMEM:F12 supplemented with 10 µM RA, 80 nM 12-O-tetradecanoylphorbol-13-acetate (TPA), and 2.5% FBS, and the cells were maintained for an additional 4 days (with the medium changed at day 6). The cytotoxicity assay was performed on day 8.
(§3) The SH-SY5Y cells’ viability was evaluated after exposure for 24 h to […]. The 3-(4,5-dimethylthiazol-2-yl) − 2,5-diphenyltetrazolium bromide (MTT) colorimetric assay was performed following the methodology described by Joana Silva et al.. The experimental dose–response results were fitted to the Hill’s sigmoidal non-linear regression model. For each cathinone, the LC50 values (cathinone concentration showing 50% lethality) and their confidence interval at the 95% confidence level ([CI]) were determined. The Hill slope, also known as the Hill coefficient, which describes the steepness of a dose–response curve, and the minimum observable adverse effect concentration (LOAEL) were also determined for all cathinones.

[4] = as above; type: cell-based, human; conditions: human, differentiated SH-SY5Y, 0.05–5 mM, MTT reduction assay, Hill fit, read-out: LC50
Protocol: as §1, §2, §3

SH-SY5Y cells [5] = test: Intracellular reactive oxygen species levels (H2-DCFDA probe); type: cell-based, human; conditions: 6 h treatment at LC50
Protocol: Reactive oxygen species (ROS) production was determined by evaluating ROS levels after exposure to cathinones at concentrations corresponding to their LC50 for 6 h. SH-SY5Y cells were washed with 1× PBS and incubated with 100 µL of 2′,7′-dichlorodihydrofluorescein diacetate (H2-DCFDA) (20 µM) in medium without FBS, for 60 min at 37 °C in the dark. Subsequently, the cells were washed with 1× PBS (1×), and the cells were maintained for 30 min at room temperature in 100 µL of PBS. After this time, ROS levels were determined by measuring fluorescence (excitation wavelength (λ): 495 nm; emission λ: 527 nm). Ascorbic acid (A.A) (100 µg/mL) served as the negative control and, hydrogen peroxide (H2O2) (200 µM) was used as the positive control. Results were expressed as a percentage relative to the control. All data were derived from at least three independent experiments (n = 3) and presented as mean ± standard error of the mean (SEM).

T1 sequence (O42275 24-633): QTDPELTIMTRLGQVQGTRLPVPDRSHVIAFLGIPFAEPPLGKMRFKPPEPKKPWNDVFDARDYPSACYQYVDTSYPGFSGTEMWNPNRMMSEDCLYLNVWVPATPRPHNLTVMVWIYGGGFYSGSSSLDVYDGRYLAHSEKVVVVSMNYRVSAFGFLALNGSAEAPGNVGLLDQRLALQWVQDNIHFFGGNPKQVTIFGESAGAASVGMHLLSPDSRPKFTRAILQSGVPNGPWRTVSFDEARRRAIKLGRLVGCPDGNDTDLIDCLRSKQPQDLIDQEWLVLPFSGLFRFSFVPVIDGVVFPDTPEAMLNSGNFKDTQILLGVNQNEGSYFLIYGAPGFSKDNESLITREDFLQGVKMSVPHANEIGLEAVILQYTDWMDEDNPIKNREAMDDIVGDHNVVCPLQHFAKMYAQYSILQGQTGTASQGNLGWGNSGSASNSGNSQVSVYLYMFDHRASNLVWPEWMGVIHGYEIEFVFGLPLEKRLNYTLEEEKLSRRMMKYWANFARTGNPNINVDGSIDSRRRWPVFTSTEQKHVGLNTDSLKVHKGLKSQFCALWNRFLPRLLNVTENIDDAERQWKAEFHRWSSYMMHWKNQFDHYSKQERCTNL

SMILES	MMP depolarization (SH-SY5Y cells [1])	maximum inhibition of AChE among the tested concentrations ([2]; 0.03 to 2 mM)	Hillslope [2]	LOAEL [2]	IC50 [2]	LOAEL [3]	CC50 at 24 h [4]	significant increase in ROS production compared to vehicle (SH-SY5Y cells [5])	inhibition at 2000 µM ([2]; highest tested concentration of 2 mM)	increase in ROS production compared to the vehicle (SH-SY5Y cells [5])
CCN(CC)C(C)C(=O)c1cccc(Cl)c1 (racemic) [3-Cl-DEC (15), (R,S)-1-(3-chlorophenyl)-2-(diethylamino)propan-1-one]	more pronounced MMP depolarization than the other cathinones	87%	0.9	0.063 mM	0.3 mM	1 mM and 1.0 mM	1.2 mM	exception	–	–
CC(NC(C)(C)C)C(=O)c1ccc(Cl)cc1 (racemic) [4-Cl-TBC (20), (R,S)-2-(tert-butylamino)-1-(4-chlorophenyl)propan-1-one]	–	–	2.7	0.500 mM	~2 mM	0.5 mM	1.3 mM	–	48%	30%
